Experimental data published in US11224585B2, “Compositions containing omega-3 oil and uses thereof” (Maine Natural Health Company, Inc., priority 2010, dated 2022).

Tests used:
[1] = Absorption rate of ibuprofen in mice (tail vein samples); format: in vivo; settings: mouse, blood (tail vein samples), 25 mg/kg
From the text: Additional experiments to test the absorption rate of the different omega-3 oil-containing pharmaceutical compositions described herein was illustrated in a mouse model.

[2] = test system: stomach lesions in fasted mice; settings: 10 mg/kg ketoprofen, one hour after administration, n = 8
[3] = test system: carrageenin-induced ear swelling mouse model; experiment: Carrageenin-induced ear swelling mouse model of inflammation; settings: mice, ketoprofen 2 mg/kg, ear volume vs control mice, eight mice per treatment

Row | SMILES | Cmax [1] [ng/mL] | Average Lesions Score/Stomach [2] | % of Inhibition of Inflammation [3] [%]
1 | CC(C)Cc1ccc(C(C)C(=O)O)cc1 (stereo not drawn) [Ibuprofen in saline, ibuprofen] | 10000 | – | –
2 | CC(C(=O)O)c1cccc(C(=O)c2ccccc2)c1 (stereo not drawn) [Ketoprofen in Saline, ketoprofen] | – | 33 | 45
